Measured values taken from patent US10675360B2 (MADRIGAL PHARMACEUTICALS, INC., priority 2014, dated 2020).
Like-named read-outs stand apart in the source and are kept apart here.

What was measured:
[1] = tested on: H 3211 NSLC cells; assay: IC50 of continuous and pulsed exposure to SDC-TRAPs; assay type: cell-based
[2] = Stability in mouse plasma; assay type: in vitro ADME; conditions: 1 h
[3] = 1 h, read-out: IC50, 1 h-pulse/71 h-compound free, H 3211 NSLC cells, 7.5 × 10^3 cells/well, 1st of 2 columns
[4] = 1 h, read-out: IC50, 1 h-pulse/71 h-compound free, H 3211 NSLC cells, 7.5 × 10^3 cells/well, 2nd of 2 columns
[5] = 72 h, read-out: IC50, 72 h-continuous, H 3211 NSLC cells, 7.5 × 10^3 cells/well, 1st of 3 columns
[6] = 72 h, read-out: IC50, 72 h-continuous, H 3211 NSLC cells, 7.5 × 10^3 cells/well, 2nd of 3 columns
[7] = 72 h, read-out: IC50, 72 h-continuous, H 3211 NSLC cells, 7.5 × 10^3 cells/well, 3rd of 3 columns

IC50 [1, 3]	IC50 [1, 4]	IC50 [1, 5]	IC50 [1, 6]	IC50 [1, 7]	Compound	% Remaining ([2]; mouse plasma, 37° C.)	other results
> 3000 nM	> 3000 nM	209 nM	713 nM	258 nM	CC(C)c1cc(-c2nnc(O)n2-c2ccc3c(ccn3CCN(C)C(=O)c3ccc(CCc4c[nH]c5nc(N)[nH]c(=O)c45)cc3)c2)c(O)cc1O [SDC-TRAP-0019, 4-(2-(2-amino-4-oxo-4,7-dihydro-3H-pyrrolo[2,3-d]pyrimidin-5-yl)ethyl)-N-(2-(5-(3-(2,4-dihydroxy-5-isopropylphenyl)-5-hydroxy-4H-1,2,4-triazol-4-yl)-1H-indol-1-yl)ethyl)-N-methylbenzamide]	–	–
> 3000 nM	> 3000 nM	287 nM	839 nM	735 nM	CC(C)c1cc(-c2nnc(O)n2-c2ccc3c(ccn3CCN(C)C(=O)CCCC(=O)Nc3cccc4c3CN(C3CCC(=O)NC3=O)C4=O)c2)c(O)cc1O (stereo not drawn) [SDC-TRAP-0018, N1-(2-(5-(3-(2,4-dihydroxy-5-isopropylphenyl)-5-hydroxy-4H-1,2,4-triazol-4-yl)-1H-indol-1-yl)ethyl)-N5-(2-(2,6-dioxopiperidin-3-yl)-1-oxoisoindolin-4-yl)-N1-methylglutaramide]	–	–
> 3000 nM	> 3000 nM	431 nM	817 nM	902 nM	CC(C)c1cc(-c2nnc(O)n2-c2ccc3c(ccn3CCN(C)C(=O)NCC(=O)Nc3cccc4c3CN(C3CCC(=O)NC3=O)C4=O)c2)c(O)cc1O (stereo not drawn) [SDC-TRAP-0021, 2-(3-(2-(5-(3-(2,4-dihydroxy-5-isopropylphenyl)-5-hydroxy-4H-1,2,4-triazol-4-yl)-1H-indol-1-yl)ethyl)-3-methylureido)-N-(2-(2,6-dioxopiperidin-3-yl)-1-oxoisoindolin-4-yl)acetamide]	–	–
> 3000 nM	> 3000 nM	587 nM	2620 nM	2010 nM	CC(C)c1cc(-c2nnc(O)n2-c2ccc3c(ccn3CCOCCNC(=O)c3ccc(CCc4c[nH]c5nc(N)[nH]c(=O)c45)cc3)c2)c(O)cc1O [SDC-TRAP-0020, 4-(2-(2-amino-4-oxo-4,7-dihydro-3H-pyrrolo[2,3-d]pyrimidin-5-yl)ethyl)-N-(2-(2-(5-(3-(2,4-dihydroxy-5-isopropylphenyl)-5-hydroxy-4H-1,2,4-triazol-4-yl)-1H-indol-1-yl)ethoxy)ethyl)benzamide]	–	–
–	–	–	–	–	CCc1c2c(nc3ccc(O)cc13)-c1cc3c(c(=O)n1C2)COC(=O)C3(CC)OC(=O)CN1CCC(Cc2ccc(-n3c(O)nnc3-c3cc(C(C)C)c(O)cc3O)cc2)CC1 (stereo not drawn) [SDC-TRAP-0071, 4,11-diethyl-9-hydroxy-3,14-dioxo-3,4,12,14-tetrahydro-1H-pyrano[3′,4′:6,7]indolizino[1,2-b]quinolin-4-yl 2-(4-(4-(3-(2,4-dihydroxy-5-isopropylphenyl)-5-hydroxy-4H-1,2,4-triazol-4-yl)benzyl)piperidin-1-yl)acetate]	102%	–
–	–	–	–	–	CC(C)c1cc(-c2nnc(O)n2-c2ccc(N3CCN(C(=O)c4ccc(COC(=O)Nc5cccc6c5CN(C5CCC(=O)NC5=O)C6=O)cc4)CC3)cc2)c(O)cc1O (stereo not drawn) [SDC-TRAP-0156, 4-(4-(4-(3-(2,4-Dihydroxy-5-isopropylphenyl)-5-hydroxy-4H-1,2,4-triazol-4-yl)phenyl)piperazine-1-carbonyl)benzyl (2-(2,6-dioxopiperidin-3-yl)-1-oxoisoindolin-4-yl)carbamate]	–	% Remaining ([2]; mouse, plasma, 10 μM): 90.3%
–	–	–	–	–	CCNC(=O)c1nnc(-c2cc(C(C)C)c(O)cc2O)n1-c1ccc(C(=O)N2CCN(C(=O)COC(=O)OC3(CC)C(=O)OCc4c3cc3n(c4=O)Cc4c-3nc3ccc(O)cc3c4CC)CC2)cc1 (stereo not drawn) [SDC-TRAP-0202, 4,11-diethyl-9-hydroxy-3,14-dioxo-3,4,12,14-tetrahydro-1H-pyrano[3′,4′:6,7]indolizino[1,2-b]quinolin-4-yl (2-(4-(4-(3-(2,4-dihydroxy-5-isopropylphenyl)-5-(ethylcarbamoyl)-4H-1,2,4-triazol-4-yl)benzoyl)piperazin-1-yl)-2-oxoethyl) carbonate]	21.2%	–
–	–	–	–	–	CCNC(=O)c1nnc(-c2cc(C(C)C)c(O)cc2O)n1-c1ccc(OC2CCN(C(=O)C3CCN(C(=O)Oc4ccc5nc6c(c(CC)c5c4)Cn4c-6cc5c(c4=O)COC(=O)[C@]5(O)CC)C(C)C3)CC2)cc1 (stereo partly drawn) [SDC-TRAP-0213, (S)-4,11-diethyl-4-hydroxy-3,14-dioxo-3,4,12,14-tetrahydro-1H-pyrano[3′,4′:6,7]indolizino[1,2-b]quinolin-9-yl 4-(4-(4-(3-(2,4-dihydroxy-5-isopropylphenyl)-5-(ethylcarbamoyl)-4H-1,2,4-triazol-4-yl)phenoxy)piperidine-1-carbonyl)-2-methylpiperidine-1-carboxylate]	74.7%	–
–	–	–	–	–	CCNC(=O)c1nnc(-c2cc(C(C)C)c(O)cc2O)n1-c1ccc(C(=O)N(C)CC(=O)Nc2cccc3c2CN(C2CCC(=O)NC2=O)C3=O)cc1 (stereo not drawn) [SDC-TRAP-0147, 5-(2,4-dihydroxy-5-isopropylphenyl)-4-(4-((2-((2-(2,6-dioxopiperidin-3-yl)-1-oxoisoindolin-4-yl)amino)-2-oxoethyl)(methyl)carbamoyl)phenyl)-N-ethyl-4H-1,2,4-triazole-3-carboxamide]	–	% Remaining ([2]; mouse, plasma, 10 μM): 98.1%
–	–	–	–	–	CCc1c2c(nc3ccc(O)cc13)-c1cc3c(c(=O)n1C2)COC(=O)[C@@]3(CC)OC(=O)N1CCC(CCc2ccc(-n3c(O)nnc3-c3cc(C(C)C)c(O)cc3O)cc2)CC1 [SDC-TRAP-0104, (S)-4,11-diethyl-9-hydroxy-3,14-dioxo-3,4,12,14-tetrahydro-1H-pyrano[3′,4′:6,7]indolizino[1,2-b]quinolin-4-yl 4-(4-(3-(2,4-dihydroxy-5-isopropylphenyl)-5-hydroxy-4H-1,2,4-triazol-4-yl)phenethyl)piperidine-1-carboxylate]	95.5%	–
–	–	–	–	–	CCNC(=O)c1nnc(-c2cc(C(C)C)c(O)cc2O)n1-c1ccc2c(ccn2CCC2CCN(C(=O)O[C@]3(CC)C(=O)OCc4c3cc3n(c4=O)Cc4c-3nc3ccc(O)cc3c4CC)CC2)c1 [SDC-TRAP-0208, (S)-4,11-diethyl-9-hydroxy-3,14-dioxo-3,4,12,14-tetrahydro-1H-pyrano[3′,4′:6,7]indolizino[1,2-b]quinolin-4-yl 4-(2-(5-(3-(2,4-dihydroxy-5-isopropylphenyl)-5-(ethylcarbamoyl)-4H-1,2,4-triazol-4-yl)-1H-indol-1-yl)ethyl)piperidine-1-carboxylate]	86.1%	–
–	–	–	–	–	CC(C)c1cc(-c2nnc(O)n2-c2ccc(CC(=O)N(C)CCOC(=O)Nc3cccc4c3CN(C3CCC(=O)NC3=O)C4=O)cc2)c(O)cc1O (stereo not drawn) [SDC-TRAP-0127, 2-(2-(4-(3-(2,4-dihydroxy-5-isopropylphenyl)-5-hydroxy-4H-1,2,4-triazol-4-yl)phenyl)-N-methylacetamido)ethyl(2-(2,6-dioxopiperidin-3-yl)-1-oxoisoindolin-4-yl)carbamate]	–	% Remaining ([2]; mouse, plasma, 10 μM): 87.3%
–	–	–	–	–	CCNC(=O)c1nnc(-c2cc(C(C)C)c(O)cc2O)n1-c1ccc(OC2CCN(C(=O)CN(C)C(=O)Oc3ccc4nc5c(c(CC)c4c3)Cn3c-5cc4c(c3=O)COC(=O)[C@]4(O)CC)CC2)cc1 [SDC-TRAP-0206, (S)-4,11-diethyl-4-hydroxy-3,14-dioxo-3,4,12,14-tetrahydro-1H-pyrano[3′,4′:6,7]indolizino[1,2-b]quinolin-9-yl(2-(4-(4-(3-(2,4-dihydroxy-5-isopropylphenyl)-5-(ethylcarbamoyl)-4H-1,2,4-triazol-4-yl)phenoxy)piperidin-1-yl)-2-oxoethyl)(methyl)carbamate]	68.6%	–

Compound	IC50 [1, 3]	IC50 [1, 4]	IC50 [1, 5]	IC50 [1, 6]	IC50 [1, 7]	% Remaining ([2]; mouse plasma, 37° C.)	other results
CCc1c2c(nc3ccc(OCC(=O)NCCn4ccc5cc(-n6c(O)nnc6-c6cc(C(C)C)c(O)cc6O)ccc54)cc13)-c1cc3c(c(=O)n1C2)COC(=O)C3(O)CC (stereo not drawn) [SDC-TRAP-0023, 2-((4,11-diethyl-4-hydroxy-3,14-dioxo-3,4,12,14-tetrahydro-1H-pyrano[3′,4′: 6,7]indolizino[1,2-b]quinolin-9-yl)oxy)-N-(2-(5-(3-(2,4-dihydroxy-5-isopropylphenyl)-5-hydroxy-4H-1,2,4-triazol-4-yl)-1H-indol-1-yl)ethyl)acetamide]	> 3000 nM	> 3000 nM	59 nM	239 nM	113 nM	–	–
CCc1c2c(nc3ccc(OCC(=O)N(C)CCn4ccc5cc(-n6c(O)nnc6-c6cc(C(C)C)c(O)cc6O)ccc54)cc13)-c1cc3c(c(=O)n1C2)COC(=O)C3(O)CC (stereo not drawn) [SDC-TRAP-0027, 2-((4,11-diethyl-4-hydroxy-3,14-dioxo-3,4,12,14-tetrahydro-1H-pyrano[3′,4′:6,7]indolizino[1,2-b]quinolin-9-yl)oxy)-N-(2-(5-(3-(2,4-dihydroxy-5-isopropylphenyl)-5-hydroxy-4H-1,2,4-triazol-4-yl)-1H-indol-1-yl)ethyl)-N-methylacetamide]	> 3000 nM	> 3000 nM	–	1740 nM	1340 nM	–	–
CCc1c2c(nc3ccc(O)cc13)-c1cc3c(c(=O)n1C2)COC(=O)C3(CC)OC(=O)CCCNC(=O)c1cc2cc(-n3c(O)nnc3-c3cc(C(C)C)c(O)cc3O)ccc2n1C (stereo not drawn) [SDC-TRAP-0024, 4,11-diethyl-9-hydroxy-3,14-dioxo-3,4,12,14-tetrahydro-1H-pyrano[3′,4′:6,7]indolizino[1,2-b]quinolin-4-yl 4-(5-(3-(2,4-dihydroxy-5-isopropylphenyl)-5-hydroxy-4H-1,2,4-triazol-4-yl)-1-methyl-1H-indole-2-carboxamido)butanoate]	–	–	76 nM	–	–	–	–
